Reference: the RepoRT retention time repository

Experiment: HILIC, Waters ACQUITY UPLC BEH Amide, 100 × 2.1 mm, 1.7 µm; A: water + 0.125% formic acid + 10 mM ammonium formate; B: 5% water + 95% acetonitrile + 0.125% formic acid + 10 mM ammonium formate; gradient (min/%B) 0/100 2/100 7.7/70 9.5/40 10.25/30 12.75/100 17/100
Conditions: stereoisomer not certain
Work on Fc1ccc(C2CCNCC2COc2ccc3c(c2)OCO3)cc1 (stereo not given) [Paroxetine] yielded an LC retention time of 3.08 min.
Work on CC1COc2c(C3(N)CC3)c(F)cc3c(=O)c(C(=O)O)cn1c23 (stereo not given) [Pazufloxacin] yielded an LC retention time of 2.49 min.
CCn1cc(C(=O)O)c(=O)c2cc(F)c(N3CCN(C)CC3)cc21 [Pefloxacin] showed an LC retention time of 3.65 min.
N=C1NC(=O)C(c2ccccc2)O1 (stereo not given) [Pemoline] showed an LC retention time of 1.39 min.
In the case of Nc1nc2c(ncn2CCC(CO)CO)c(=O)[nH]1 [Penciclovir], the LC retention time is reported as 6.71 min.
With CC(C)=CCN1CCC2(C)c3cc(O)ccc3CC1C2C (stereo not given) [Pentazocine] the LC retention time was 2.65 min.
Work on CC(=O)CCCCn1c(=O)c2c(ncn2C)n(C)c1=O [Pentoxifylline] yielded an LC retention time of 1.09 min.
CCCN1CC(CSC)CC2c3cccc4[nH]cc(c34)CC21 (stereo not given) [Pergolide] gave an LC retention time of 2.41 min.
O=C1C2CCCCC2C(=O)N1CCCCN1CCN(c2nsc3ccccc23)CC1 (stereo not given) [Perospirone] showed an LC retention time of 2.14 min.
With COc1cc(-c2[o+]c3cc(O)cc(O)c3cc2OC2OC(CO)C(O)C(O)C2O)cc(O)c1O (stereo not given) [Petunidin-3-glucoside] the LC retention time was 4.47 min.
CC1C(c2ccccc2)OCCN1C (stereo not given) [Phendimetrazine] gave an LC retention time of 2.52 min.
For NNCCc1ccccc1 [Phenelzine], the LC retention time was 4.45 min.
Work on CC(=O)OCCc1ccccc1 [Phenethylacetate] yielded an LC retention time of 1.02 min.
With NCCc1ccccc1 [Phenethylamine] the LC retention time was 4.87 min.
For CC1NCCOC1c1ccccc1 (stereo not given) [Phenmetrazine], the LC retention time was 4.04 min.
NC(=O)OCCCc1ccccc1 [Phenprobamate] showed an LC retention time of 1.01 min.
For CC(C)(N)Cc1ccccc1 [Phentermine], the LC retention time was 6.23 min.
O=CCc1ccccc1 [Phenylacetaldehyde] gave an LC retention time of 5.4 min.
NC(=O)CCC(NC(=O)Cc1ccccc1)C(=O)O (stereo not given) [Phenylacetylglutamine] showed an LC retention time of 6.03 min.
Work on O=C(O)CNC(=O)Cc1ccccc1 [Phenylacetylglycine] yielded an LC retention time of 2.88 min.
NCC(O)c1ccccc1 (stereo not given) [Phenylethanolamine] gave an LC retention time of 5.51 min.
For O=P(O)(O)Oc1ccccc1 [Phenylphosphoric acid], the LC retention time was 7.05 min.
With CC(N)C(O)c1ccccc1 (stereo not given) [Phenylpropanolamine] the LC retention time was 5.29 min.
O=C(CCc1ccc(O)cc1)c1c(O)cc(O)cc1O [Phloretin] showed an LC retention time of 1.5 min.
Compound O=C(c1ccccc1)c1c(O)cc(O)cc1O [Phlorobenzophenone] has an LC retention time of 1.34 min.
Compound Oc1cc(O)cc(O)c1 [Phloroglucinol] has an LC retention time of 1.15 min.
Work on C=C(OP(=O)(O)O)C(=O)O [Phosphoenolpyruvic acid] yielded an LC retention time of 9.05 min.
O=C(O)CP(=O)(O)O [Phosphonoacetic acid] showed an LC retention time of 9.73 min.
With NC(Cc1ccc(OP(=O)(O)O)cc1)C(=O)O (stereo not given) [Phosphotyrosine] the LC retention time was 9.72 min.
O=C(O)c1ccccc1C(=O)O [Phthalic acid] showed an LC retention time of 1.15 min.
For CNC(=O)Oc1ccc2c(c1)C1(C)CCN(C)C1N2C (stereo not given) [Physostigmine], the LC retention time was 3.17 min.
CCCCCCCCCCCCCCC(O)C(O)C(N)CO (stereo not given) [Phytosphingosine] showed an LC retention time of 5.18 min.
In the case of CC(C)(O)C1C2OC(=O)C1C1(O)CC3OC34C(=O)OC2C14C (stereo not given) [Picrotin], the LC retention time is reported as 1.21 min.
Work on O=C1CCC(C(=O)N2CSCC2C(=O)O)N1 (stereo not given) [Pidotimod] yielded an LC retention time of 7.3 min.
CCC1C(=O)OCC1Cc1cncn1C (stereo not given) [Pilocarpine] gave an LC retention time of 2.23 min.
With CC(N=C(NC#N)Nc1ccncc1)C(C)(C)C (stereo not given) [Pinacidil] the LC retention time was 1.49 min.
For CCc1ccc(CCOc2ccc(CC3SC(=O)NC3=O)cc2)nc1 (stereo not given) [Pioglitazone], the LC retention time was 1.11 min.
With O=C(O)C1CCCCN1 (stereo not given) [Pipecolic acid] the LC retention time was 7.83 min.
With O=C(C=CC=Cc1ccc2c(c1)OCO2)N1CCCCC1 [Piperine] the LC retention time was 1.1 min.
For Cc1nc2ccccn2c(=O)c1CCN1CCC(C(=O)c2ccc(F)cc2)CC1 [Pirenperone], the LC retention time was 3.5 min.
With CN1C(C(=O)Nc2ccccn2)=C(O)c2ccccc2S1(=O)=O [Piroxicam] the LC retention time was 1.02 min.
With O=C(O)CC(O)CC(O)C=Cc1c(C2CC2)nc2ccccc2c1-c1ccc(F)cc1 (stereo not given) [Pitavastatin] the LC retention time was 1.36 min.
Compound CN1CCC(=C2c3ccccc3CCc3sccc32)CC1 [Pizotifen] has an LC retention time of 2.33 min.
Work on NCc1[nH]cc(CCC(=O)O)c1CC(=O)O [Porphobilinogen] yielded an LC retention time of 7.4 min.
Work on CCCNC1CCc2nc(N)sc2C1 (stereo not given) [Pramipexole] yielded an LC retention time of 5.7 min.
CCC(C)C(=O)OC1CC(O)C=C2C=CC(C)C(CCC(O)CC(O)CC(=O)O)C21 (stereo not given) [Pravastatin] showed an LC retention time of 1.8 min.
O=C1CN=C(c2ccccc2)c2cc(Cl)ccc2N1CC1CC1 [Prazepam] gave an LC retention time of 1.07 min.
Compound COc1cc2nc(N3CCN(C(=O)c4ccco4)CC3)nc(N)c2cc1OC [Prazosin] has an LC retention time of 3.75 min.
For NC(=O)CCC(NC(=O)C1CCCN1)C(=O)O (stereo not given) [Pro-Gln], the LC retention time was 8.75 min.
In the case of CNNCc1ccc(C(=O)NC(C)C)cc1 [Procarbazine], the LC retention time is reported as 4.61 min.
Compound CN1CCN(CCCN2c3ccccc3Sc3ccc(Cl)cc32)CC1 [Prochlorperazine] has an LC retention time of 2.56 min.
CC(=O)C1CCC2C3CCC4=CC(=O)CCC4(C)C3CCC12C (stereo not given) [Progesterone] showed an LC retention time of 0.97 min.
O=C(O)C1CC(O)CN1C(=O)C1CCCN1 (stereo not given) [Proline-hydroxyproline] showed an LC retention time of 8.6 min.
Compound O=C(O)C1CCCN1 (stereo not given) [Proline] has an LC retention time of 7.83 min.
For CCC(=O)Nc1ccc(Cl)c(Cl)c1 [Propanil], the LC retention time was 1.08 min.
Work on CCC(=O)OC(CC(=O)[O-])C[N+](C)(C)C (stereo not given) [Propionylcarnitine] yielded an LC retention time of 6.41 min.
CCC(=O)OC(Cc1ccccc1)(c1ccccc1)C(C)CN(C)C (stereo not given) [Propoxyphene] gave an LC retention time of 2.01 min.
In the case of COc1cc(C=Cc2ccc(O)cc2)cc(OC)c1 [Pterostilbene], the LC retention time is reported as 0.98 min.
For c1ncc2[nH]cnc2n1 [Purine], the LC retention time was 2.44 min.
Work on NCCCCN [Putrescine] yielded an LC retention time of 9.3 min.
Work on CCOC(=O)COc1cc(-c2nn(C)c(OC(F)F)c2Cl)c(F)cc1Cl [Pyrafluefen-ethyl] yielded an LC retention time of 1.02 min.
c1ccncc1 [Pyridine] showed an LC retention time of 6.63 min.
Compound Cc1ncc(COP(=O)(O)O)c(C=O)c1O [Pyridoxal-5-phosphate] has an LC retention time of 7.7 min.
In the case of Cc1ncc(CO)c(C=O)c1O [Pyridoxal], the LC retention time is reported as 2.18 min.
Work on Cc1ncc(CO)c(CN)c1O [Pyridoxamine] yielded an LC retention time of 8.1 min.
With Cc1ncc(CO)c(CO)c1O [Pyridoxine] the LC retention time was 3.78 min.
In the case of O=C1CCC(C(=O)O)N1 (stereo not given) [Pyroglutamic acid], the LC retention time is reported as 8.71 min.
In the case of O=C(O)c1ccc[nH]1 [Pyrrole-2-carboxylic acid], the LC retention time is reported as 5.66 min.
In the case of CC(=O)OCC1OC(Oc2c(-c3ccc(O)c(O)c3)oc3cc(O)cc(O)c3c2=O)C(O)C(O)C1O (stereo not drawn) [Quercetin-3-O-beta-glucopyranosyl-6'-acetate], the LC retention time is reported as 4.61 min.
In the case of CC1OC(Oc2c(-c3ccc(O)c(O)c3)oc3cc(O)cc(O)c3c2=O)C(O)C(O)C1O (stereo not given) [Quercetin-3-ramnoside], the LC retention time is reported as 4.7 min.
OCCOCCN1CCN(C2=Nc3ccccc3Sc3ccccc32)CC1 [Quetiapine] showed an LC retention time of 2.54 min.
O=C(O)c1cccnc1C(=O)O [Quinolinic acid] showed an LC retention time of 2.16 min.
Compound COCCCOc1ccnc(CS(=O)c2nc3ccccc3[nH]2)c1C (stereo not given) [Rabeprazole] has an LC retention time of 2.44 min.
In the case of CC(=O)SCC(Cc1ccccc1)C(=O)NCC(=O)OCc1ccccc1 (stereo not given) [Racecadotril], the LC retention time is reported as 0.95 min.
Compound CCN1CCCC1CNC(=O)c1c(O)c(Cl)cc(Cl)c1OC (stereo not given) [Raclopride] has an LC retention time of 2.11 min.
OCC1OC(OCC2OC(OC3(CO)OC(CO)C(O)C3O)C(O)C(O)C2O)C(O)C(O)C1O (stereo not given) [Raffinose] showed an LC retention time of 9.17 min.
Compound Cc1nc2ccc(CN(C)c3ccc(C(=O)NC(CCC(=O)O)C(=O)O)s3)cc2c(=O)[nH]1 (stereo not given) [Raltitrexed] has an LC retention time of 7.35 min.
CCOC(=O)C(CCc1ccccc1)NC(C)C(=O)N1C(C(=O)O)CC2CCCC21 (stereo not given) [Ramipril] gave an LC retention time of 1.4 min.
For CNC(=C[N+](=O)[O-])NCCSCc1ccc(CN(C)C)o1 [Ranitidine], the LC retention time was 5.18 min.
Compound COc1ccccc1OCC(O)CN1CCN(CC(=O)Nc2c(C)cccc2C)CC1 (stereo not given) [Ranolazine] has an LC retention time of 2.79 min.
With CC(Cc1ccccc1)(NC(=O)CN)c1ccccc1 (stereo not given) [Remacemide] the LC retention time was 4.41 min.
CCOc1cc(CC(=O)NC(CC(C)C)c2ccccc2N2CCCCC2)ccc1C(=O)O (stereo not given) [Repaglinide] showed an LC retention time of 1.01 min.
For Oc1ccc(C=Cc2cc(O)cc(O)c2)cc1 [Resveratrol], the LC retention time was 1.41 min.
In the case of CC(C=CC1=C(C)CCCC1(C)C)=CC=CC(C)=CC(=O)O [Retinoic acid], the LC retention time is reported as 1.11 min.
Compound Cc1cc2nc3c(=O)[nH]c(=O)nc-3n(CC(O)C(O)C(O)CO)c2cc1C (stereo not given) [Riboflavin] has an LC retention time of 6 min.
In the case of COC1C=COC2(C)Oc3c(C)c(O)c4c(O)c(c5c(c4c3C2=O)=NC2(CCN(CC(C)C)CC2)N=5)NC(=O)C(C)=CC=CC(C)C(O)C(C)C(O)C(C)C(OC(C)=O)C1C (stereo not given) [Rifabutin], the LC retention time is reported as 2.76 min.
With COC1C=COC2(C)Oc3c(C)c(O)c4c(O)c(c(C=NN5CCN(C6CCCC6)CC5)c(O)c4c3C2=O)NC(=O)C(C)=CC=CC(C)C(O)C(C)C(O)C(C)C(OC(C)=O)C1C (stereo not given) [Rifapentine] the LC retention time was 1.81 min.
With COC1C=COC2(C)Oc3c(C)c(O)c4c(O)c(c5c(nc6cc(C)ccn65)c4c3C2=O)NC(=O)C(C)=CC=CC(C)C(O)C(C)C(O)C(C)C(OC(C)=O)C1C (stereo not given) [Rifaximin] the LC retention time was 1.18 min.
Compound Nc1nc2ccc(OC(F)(F)F)cc2s1 [Riluzole] has an LC retention time of 1.03 min.
Work on CC1CN(CCCn2c3ccccc3c3ccccc32)CC(C)N1 (stereo not given) [Rimcazole] yielded an LC retention time of 2.87 min.
